Literature values in patent US20030195350A1, “Individualization of therapy with antiviral agents” (priority 2001, published 2003).
pEC50: −log10 of the molar value. Read-outs that look alike come from different tables or passages of the source.

Legend:
[1] = cited from earlier work; for AUC (mean±SD): single 600 mg dose, non-fasting
HIV isolates = details: one ZDV-resistant HIV isolate in vitro; cited from earlier work
[2] = in vivo; cited from earlier work
HIV = details: cited from earlier work
HIV-1 = details: cited from earlier work
[3] = in vivo; cited from earlier work; remark: listed apart in the source

CC(C)c1nc(CN(C)C(=O)N[C@H](C(=O)N[C@@H](Cc2ccccc2)C[C@H](O)[C@H](Cc2ccccc2)NC(=O)OCc2cncs2)C(C)C)cs1 (relative stereo) [ritonavir, 10-Hydroxy-2-methyl-5-(1-methylethyl)-1-[2-(1-methylethyl)-4-thiazolyl]-3,6-dioxo-8,11-bis(phenylmethyl)-2,4,7,12-tetraazatridecan-13-oic acid, 5-thiazolylmethyl ester, [5S-(5R*,8R*,10R*,11R*)]]
steady-state oral clearance (CL/F/m^2), pediatric vs adult ([1]; HIV-infected individuals ages 2 to 14 years): approximately 1.5 times
dose excreted in the feces ([1]; in vivo, po): 86.4±2.9 % of the dose
dose excreted in the feces as unchanged parent drug ([1]; in vivo, po): 33.8±10.8 % of the dose
dose excreted into the urine ([1]; in vivo, po): 11.3±2.8 % of the dose
dose excreted into the urine as unchanged parent drug ([1]; in vivo, po): 3.5±1.8 % of the dose
effect of dilution of oral solution on extent and rate of absorption ([1]; in vivo, po): did not significantly affect
renal clearance ([1]; in vivo): negligible
AUC (mean±SD) ([1]; oral solution (n=18)): 129.0 ± 39.3 µg·h/mL
AUC (mean±SD) ([1]; soft gelatin capsule (n=57)): 121.7 ± 53.8 µg·h/mL
susceptibility of ZDV-resistant HIV isolate (HIV isolates): retained full susceptibility
Adverse event: Depression [2]: 1.7%
Adverse event: Fecal Incontinence [2]: 0.0%
Adverse event: Vasodilation [2]: 1.7%
cumulative incidence of clinical disease progression or death (HIV; double-blind phase of Study 247, 600 mg b.i.d.): 26%
cumulative mortality (HIV; through end of open-label follow-up phase, Study 247): 18%
effect against HIV-1 in combination (HIV-1; MT 4 cells, with either zidovudine (ZDV) or didanosine (ddI)): additive effects
pEC50 (HIV-1; read-out: average EC50, low passage clinical isolates (n=13)): 7.66
Adverse event: Depression [3]: 1.7%
Adverse event: Diarrhea [3]: 15.4%
Adverse event: Fecal Incontinence [3]: 0.0%
Adverse event: Vasodilation [3]: 1.7%
